Each structure is given as a SMILES string.

In experiment [1] the test system is MDA-MB-231 human breast tumor cells. The experiment in a line: Experimental lung metastasis of MDA-MB-231 cells in NOD-SCID mice, bioluminescence imaging. Particulars: 10 mg/kg I.P. every other day for seven weeks. It counts as in vivo, mouse. Here is the method:
Breast Tumor Metastasis in Mice. All animal work was performed in compliance with the Institutional Animal Care and Use Committee of the Weill Medical College. Spontaneous 4T1 mouse breast tumor metastasis assay was done as described previously (Shan et al. 2005). NOD-SCID immunodeficient mice were used for experimental lung metastasis experiments. MDA-MB-231 human breast tumor cells expressing the TGL reporter were trypsinized and washed with PBS. This artificial TGL reporter gene encodes a triple fusion protein with herpes simplex virus 1 thymidine kinase fused to the N-terminus of enhanced GFP and firefly luciferase fused to the C-terminus of GFP (Ponomarev et al. 2004). Subsequently 1×10^6 cells in 0.2 ml PBS were injected into the lateral tail vein. […] Three randomly selected fields (10×objectives) on the lower side of the insert were photographed, and the cells on the lower surface of the insert were counted.
Third, the experimental metastasis model with MDA-MB-231 human tumor cells in immunodeficient mice was used to investigate the role of fascin in tumor metastasis and the effect of macroketone on the metastasis of human tumors in mice (FIG. 8 E-H). […] GFP-positive cells were enriched by fluorescence-activated cell sorting. […] The metastasis of tumor cells to the lung was monitored by non-invasive bioluminescence imaging (Minn et al. 2005). […]

The target in experiment [2] is T1, fascin (Homo sapiens, UniProt Q16658). The experiment in a line: Electron microscopy of fascin-induced F-actin bundles. The format is biochemical. The arrangement: GST (N); made in house; host or cells: Escherichia coli BL21.
Experiment [3] concerns human prostate tumor PC-3 cells. The experiment can be described thus: Cell migration assay, PC-3 cells. The format is cell-based.
The test system of experiment [4] is human breast tumor MDA-MB 231 cells. The experiment can be described thus: Cell migration assay, MDA-MB-231 cells. The format is cell-based. Here is the method: (§1) Cells. Mouse 4T1 mammary tumor cells and human MDA-MB-231 breast tumor cells were obtained from ATCC and have been described previously (Shan et al. 2005, Yang et al. 2005). 4T1 cells were cultured in RPMI 1640 medium supplemented with 10% FBS. MDA-MB-231 cells were cultured in DMEM supplemented with 10% FBS. Wound-healing assay. The wound-healing assay involves observing whether confluent cells can migrate across a scrape or wound in the cell layer. Cell migration assays were performed as described previously (Yang et al. 2005, Shan et al 2006). Tumor cells were plated in a 24-well plate coated with gelatin in standard media. […] Photographs several random regions of the filter facing the second chamber are taken and the number of cells counted to calculate the average number of cells that had transmigrated.
Boyden Chamber Cell Migration Assay. […] Three randomly selected fields (10× objectives) on the lower side of the insert were photographed, and the migrated cells were counted. The migration was expressed as either the average number of migrated cells in a field or as percentage of migrated cells in positive control. Percentage was calculated with the formula P=100×(M−Mnc)/Mpc, where P is the percentage of migrated cells, M is the number of migrated cells, Mnc is the number of migrated cells in negative controls, and Mpc is the number of migrated cells in positive controls.

The subject of experiment [5] is human fascin His474 to Lys or Ala mutants. The experiment can be described thus: Chamber migration of fascin siRNA-treated 4T1 cells rescued with His474 mutants of human fascin. The format is cell-based. Particulars: His474 to Lys or Ala human fascin in fascin siRNA-treated 4T1 cells. Here is the method: Boyden Chamber Cell Migration Assay. Cells (5×10^4) suspended in starvation medium were added to the upper chamber of an insert (6.5 mm diameter, 8-micrometer pore size, Becton Dickenson), and the insert was placed in a 24-well dish containing starvation medium with or without 10% FBS (Yang et al. 2005, Shan et al. 2006). When used, inhibitors were added to both chambers. Migration assays were carried out for 4-6 hours and cells were fixed with 3.7% formaldehyde. Cells were stained with crystal violet staining solution, and cells on the upper side of the insert were removed with a cotton swab. Three randomly selected fields (10× objectives) on the lower side of the insert were photographed, and the migrated cells were counted. The migration was expressed as either the average number of migrated cells in a field or as percentage of migrated cells in positive control. Percentage was calculated with the formula P=100×(M−Mnc)/Mpc, where P is the percentage of migrated cells, M is the number of migrated cells, Mnc is the number of migrated cells in negative controls, and Mpc is the number of migrated cells in positive controls.

Experiment [6] has as its system mouse breast tumor 4T1 cells. The experiment in a line: Wound-healing assay, serum-induced migration of 4T1 cells. It counts as cell-based. Conditions: 2 μM. The method, then:
as §1, with “media. After the cells grew to confluence, wounds were made in the confluent layer of cell using a sterile instrument such as a sterile pipette tip. The cells were washed with Phosphate Buffered Saline (PBS) or other sterile solutions and then the migration was induced by adding medium supplemented with 10% FBS. When the wound for the positive control closed, cells were fixed with 3.7% formaldehyde and stained with crystal violet staining solution.” for “media.”

Experiment [7] has as its target T1, fascin. The experiment can be described thus: F-actin binding assay, high-speed centrifugation. Set-up: GST (N); made in house; host or cells: Escherichia coli BL21.
Experiment [8] has as its system mouse embryonic fibroblast (MEF) cells. The experiment can be described thus: Wound-healing assay, serum-induced migration of MEF cells. The format is cell-based. Conditions: 200 μM.
The next experiment deals with 4T1 cells. Particulars: serum, Shan et al. 2005; cited from earlier work.

As for `COC1C=CCCCCC(=O)CCC(C)=CC(C)C1O` (stereo not drawn) [macroketone, Migrastatin ketone], in experiment [1], the “reduction of metastasis of MDA-MB-231 cells (photon flux)” value is recorded as more than 80%. In addition, on fascin [2], the “thickness of actin bundles” value is listed as “decreased the thickness of the bundles”. In addition, the inhibition of migration entry in [3] and in [4] was “inhibited the migration” each time. In [5], the “inhibition of rescued migration” value is listed as “not inhibited”. In addition, the “inhibition of serum-induced migration (wound-healing)” value in experiment [6] is “inhibited the migration”. The “fascin pulled down by F-actin” value on fascin [7] was “significantly less fascin was pulled down”. Further, in experiment [8], the “effect on serum-induced migration (wound-healing)” value was “had no effect”. Moreover, in the experiment with 4T1 cells, the “formation of lamellipodia at the leading edge” value is on record as “inhibited the formation of lamellipodia”.

Values taken from patent publication US20100297109A1, “METHODS FOR INHIBITING FASCIN” (Cornell University, priority 2007, published 2010).
